# According to US20220389013A1, “PYRIDOPYRIMIDINONE COMPOUNDS AND APPLICATIONS THEREOF” (BeBetter Med Inc., priority 2020, published 2022):
# pIC50: −log10 of the molar value. Where a name gives a salt, the structure may show the parent alone.
# Key:
# KRAS-G12C/SOS1 = target: T1, KRAS-G12C/SOS1 (Homo sapiens, UniProt P01116, G12C); experiment: HTRF KRAS-G12C/SOS1 binding assay; details: 2 hours room temperature
# T1 construct: purchased Cisbio #63ADK000CB16PEG
# Protocol: 2) Diluted the compound to be tested with diluent into 10× stock solution, starting from a concentration of 10000 nM, diluting in 4-fold gradient and a total of 6 concentration gradients.
# After incubated at room temperature for 15 minutes, added pre-mixed 5 uL of anti-Tag1-Tb^3+ and 5 uL of anti-Tag2-XL665. Sealed the plate and incubated at room temperature for 2 hours.
# Data were processed by using Graphpad prism software.
# H358 (KRAS G12C) = experiment: Tumor cell proliferation inhibition assay (CellTiter-Glo), H358; format: cell-based, Human; details: 10% fetal bovine serum
# Procedure, shortened: (§1)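 Growth was read as ATP by CellTiter-Glo luminescence, with inhibition normalised to DMSO (max) and medium-only (min) wells. IC50 came from sigmoidal dose-response fits.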
# MIA-Paca2 (KRAS G12C) = experiment: Tumor cell proliferation inhibition assay (CellTiter-Glo), MIA-Paca2; format: cell-based, Human; details: 10% fetal bovine serum
# Procedure, shortened: as §1
# H23 (KRAS G12C) = experiment: Tumor cell proliferation inhibition assay (CellTiter-Glo), H23; format: cell-based, Human; details: Homo sapiens, 72 h, 10% fetal bovine serum
# Protocol: The H358, H23 or MIA-Paca2 cells were digested, centrifuged and resuspended, and the cell density was measured with a Scepter automatic cell counter. Cells were diluted to a solution containing 44,000 cells per milliliter, then added to a 96-well culture plate at 90 μL per well. The 96-well plate was placed in a 5% CO2 incubator at 37° C., and after the cells were cultured for 24 hours, different concentrations of the compounds to be tested were added. Cells were incubated with compounds in the presence of 10% fetal bovine serum for 72 hours. The inhibition of cell growth was assessed by measuring ATP levels by using the CellTiter-Glo Luminescent Cell Viability Assay Kit (details in manufacturer's instructions). In brief, 30 μL of CellTiter-Glo reagent was added to each well and the plate was shaken for 10 minutes to induce cell lysis, then the fluorescent signal was detected and recorded with a Fluoroskan Ascent FL (Thermo). Maximum signal values were obtained from cells treated with DMSO for 72 hours. Minimum signal values were obtained with medium only (zero cell number). Inhibition rate %=(maximum signal value-compound signal value)/(maximum signal value-minimum signal value)×100%. Data were processed by using Graphpad prism5 software. IC50 values were calculated using a sigmoidal dose-response curve.
# [1] = Pharmacokinetic (PK) experiment in rats by gavage; format: in vivo; details: rat, plasma, po, male SD rats, 20 mg/kg; for AUC(0-t): read-out: AUC0-24
# H358 xenograft tumor = experiment: H358 human non-small cell lung cancer subcutaneous mouse xenograft model, anticancer activity; format: in vivo, BALB/c nude mice; details: 100 mg/kg, po, qd, 26 days
# Protocol: In this experiment, the anticancer activities of compounds 73-1 and 90-1 in the subcutaneous tumor model of H358 human non-small cell lung cancer xenograft mice, and the dose-response relationship of compound 73-1 in inhibiting the growth of H358 xenograft tumors were investigated. […] When H358 cells were cultured to a sufficient number, cells were collected. […] Vernier calipers were used to measure the size of the tumor. The formula for calculating the tumor volume is: tumor volume=(length×width^2)/2, and the formula for calculating the relative tumor proliferation rate T/C value is: T/C (%)=100×ΔT/ΔC (ΔT>0) or T/T (%)=100×ΔT/T0 (ΔT<0). ΔT is the difference of tumor volume in the treatment group, ΔC is the difference of tumor volume in the vehicle control group, and T0 is the tumor volume in the treatment group before administration.
# The dosage of the all groups, except the vehicle control group, was 100 mg/kg, 10 mL/kg orally administered by gavage, once a day. […] All the groups were administered continuously for 26 days.
# [2] = Caco-2 cell transmembrane transport experiment; details: human; for efflux ratio at 90 min, 10 μM: Caco-2, pH 7.4; for Papp B→A at 90 min, 10 μM: basolateral to apical
# Source text: (§2) In this experiment, a monolayer of Caco-2 cells was used to assess drug penetration. […] The apparent permeability coefficient from apical to basolateral (Papp A-B) and the basolateral to apical permeability coefficient (Papp B-A) of compounds represent the ability of the compound to be transported in both directions, respectively.
# (§3) Apparent permeability coefficient (Papp)=(the volume of the receiver chamber/the filter surface area×culture time))×(the drug concentration of receiver chamber at the end of culture/(the drug concentration of donor chamber at the initial culture×dilution factor)
# (§4) In this experiment, Millipore cell culture plates (PSHT 010 R5): membrane area=0.7 cm^2, recipient side volume=0.8 mL (A-to-B) or 0.4 mL (B-to-A), incubation time=90 minutes.
# in vitro = details: human; for efflux ratio at 90 min, 10 μM: Caco-2, pH 7.4
# Source text: as §2, §3, §4
# [3] = Caco-2, pH 7.4, Papp A-B Sample_01, 10 μM, pH 7.4, 37° C., 90 min, apical to basolateral
# [4] = Caco-2, pH 7.4, Papp A-B Sample_02, 10 μM, pH 7.4, 37° C., 90 min, apical to basolateral
# [5] = Caco-2, pH 7.4, Papp A-B mean value, 10 μM, pH 7.4, 37° C., 90 min, apical to basolateral
# [6] = Caco-2, pH 7.4, Papp B-A Sample_01, 10 μM, pH 7.4, 37° C., 90 min
# [7] = Caco-2, pH 7.4, Papp B-A Sample_02, 10 μM, pH 7.4, 37° C., 90 min
# [8] = Caco-2, pH 7.4, Papp B-A mean value, 10 μM, pH 7.4, 37° C., 90 min
# [9] = Caco-2, pH 7.4, apparent permeability coefficient Papp A-B, Caco-2
# [10] = Caco-2, pH 7.4, Papp A-B Sample_01
# [11] = Caco-2, pH 7.4, Papp A-B Sample_02
# [12] = Caco-2, pH 7.4, Papp A-B mean value
# [13] = Caco-2, pH 7.4, Papp B-A Sample_01
# [14] = Caco-2, pH 7.4, Papp B-A Sample_02
# [15] = Caco-2, pH 7.4, Papp B-A mean value
# T1 sequence (P01116 1-188 isoform P01116-2 G12C): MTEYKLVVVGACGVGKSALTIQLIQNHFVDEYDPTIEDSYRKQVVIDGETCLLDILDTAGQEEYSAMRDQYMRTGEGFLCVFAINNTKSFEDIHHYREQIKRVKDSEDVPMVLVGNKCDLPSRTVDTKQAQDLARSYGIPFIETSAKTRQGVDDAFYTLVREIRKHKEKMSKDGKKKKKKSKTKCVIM
structure (smiles),measurement,setting,value
"C=CC(=O)N1C[C@H](C)N(c2nc(=O)n(-c3c(C)ccnc3C(C)C)c3nc(-c4c(F)ccc5ccoc45)c(Cl)cc23)C[C@H]1C (single isomer, unassigned) [Compound 90-1]",IC50,KRAS-G12C/SOS1,< 50 nM
same,pIC50,"H358 (KRAS G12C); Homo sapiens, NCI-H358, 72 h",> 8.00
same,pIC50,"MIA-Paca2 (KRAS G12C); Homo sapiens, MIA PaCa-2, 72 h",> 8.00
same,pIC50,H23 (KRAS G12C),> 8.00
same,AUC(0-inf),[1],13800 ng·h/mL
same,Cmax,[1],3720 ng/mL
same,Tmax,[1],1.33 h
same,half-life,[1],3.26 h
same,AUC(0-t),[1],13800 ng·h/mL
same,Changes of body weight (%),H358 xenograft tumor,23.3%
same,tumor suppressor T/C value (%),H358 xenograft tumor,−99.5%
same,melting point,,175 to 177 °C
same,"efflux ratio at 90 min, 10 μM",[2],1.08
same,"Papp A→B at 90 min, 10 μM",[2]; [3],20.1 ×10⁻⁶ cm/s
same,"Papp A→B at 90 min, 10 μM",[2]; [4],20.4 ×10⁻⁶ cm/s
same,"Papp A→B at 90 min, 10 μM",[2]; [5],20.2 ×10⁻⁶ cm/s
same,"Papp B→A at 90 min, 10 μM",[2]; [6],18.6 ×10⁻⁶ cm/s
same,"Papp B→A at 90 min, 10 μM",[2]; [7],25.2 ×10⁻⁶ cm/s
same,"Papp B→A at 90 min, 10 μM",[2]; [8],21.9 ×10⁻⁶ cm/s
same,"Papp A→B at 90 min, 10 μM",[2]; [9],> 10 ×10⁻⁶ cm/s
"C=CC(=O)N1C[C@H](C)N(c2nc(=O)n(-c3c(C)ccnc3C(C)C)c3nc(-c4c(F)c(F)cc5ccoc45)c(F)cc23)C[C@H]1C (single isomer, unassigned) [Compound 91-1]",IC50,KRAS-G12C/SOS1,100 to 500 nM
same,pIC50,"H358 (KRAS G12C); Homo sapiens, NCI-H358, 72 h",7.30 to 8.00
same,pIC50,"MIA-Paca2 (KRAS G12C); Homo sapiens, MIA PaCa-2, 72 h",7.30 to 8.00
same,pIC50,H23 (KRAS G12C),> 8.00
same,AUC(0-inf),[1],9710 ng·h/mL
same,Cmax,[1],2970 ng/mL
same,Tmax,[1],1.17 h
same,half-life,[1],2.72 h
same,AUC(0-t),[1],9680 ng·h/mL
same,melting point,,156 to 158 °C
"C=CC(=O)N1CCN(c2nc(=O)n(-c3c(C)ccnc3C(C)C)c3nc(-c4c(F)c(F)cc5ccoc45)c(Cl)cc23)[C@@H](C)C1 (single isomer, unassigned) [Compound 103-1]",IC50,KRAS-G12C/SOS1,< 50 nM
same,pIC50,"H358 (KRAS G12C); Homo sapiens, NCI-H358, 72 h",> 8.00
same,pIC50,"MIA-Paca2 (KRAS G12C); Homo sapiens, MIA PaCa-2, 72 h",> 8.00
same,pIC50,H23 (KRAS G12C),> 8.00
same,AUC(0-inf),[1],6240 ng·h/mL
same,Cmax,[1],2700 ng/mL
same,Tmax,[1],1 h
same,half-life,[1],6.03 h
same,AUC(0-t),[1],6190 ng·h/mL
same,"efflux ratio at 90 min, 10 μM",[2],2.08
same,"Papp A→B at 90 min, 10 μM",[2]; [3],12.1 ×10⁻⁶ cm/s
same,"Papp A→B at 90 min, 10 μM",[2]; [4],10.7 ×10⁻⁶ cm/s
same,"Papp A→B at 90 min, 10 μM",[2]; [5],11.4 ×10⁻⁶ cm/s
same,"Papp B→A at 90 min, 10 μM",[2]; [6],19.7 ×10⁻⁶ cm/s
same,"Papp B→A at 90 min, 10 μM",[2]; [7],27.8 ×10⁻⁶ cm/s
same,"Papp B→A at 90 min, 10 μM",[2]; [8],23.7 ×10⁻⁶ cm/s
same,"Papp A→B at 90 min, 10 μM",[2]; [9],> 10 ×10⁻⁶ cm/s
"C=CC(=O)N1C[C@H](C)N(c2nc(=O)n(-c3c(C)ccnc3C(C)C)c3nc(-c4c(F)c(F)cc5ccoc45)c(Cl)cc23)C[C@H]1C (single isomer, unassigned) [Compound 104-1]",IC50,KRAS-G12C/SOS1,< 50 nM
same,pIC50,"H358 (KRAS G12C); Homo sapiens, NCI-H358, 72 h",> 8.00
same,pIC50,"MIA-Paca2 (KRAS G12C); Homo sapiens, MIA PaCa-2, 72 h",7.30 to 8.00
same,pIC50,H23 (KRAS G12C),> 8.00
same,AUC(0-inf),[1],10500 ng·h/mL
same,Cmax,[1],2590 ng/mL
same,Tmax,[1],1 h
same,half-life,[1],4.35 h
same,AUC(0-t),[1],10300 ng·h/mL
same,"efflux ratio at 90 min, 10 μM",[2],1.92
same,"Papp A→B at 90 min, 10 μM",[2]; [3],11.2 ×10⁻⁶ cm/s
same,"Papp A→B at 90 min, 10 μM",[2]; [4],10.4 ×10⁻⁶ cm/s
same,"Papp A→B at 90 min, 10 μM",[2]; [5],10.8 ×10⁻⁶ cm/s
same,"Papp B→A at 90 min, 10 μM",[2]; [6],22.1 ×10⁻⁶ cm/s
same,"Papp B→A at 90 min, 10 μM",[2]; [7],19.5 ×10⁻⁶ cm/s
same,"Papp B→A at 90 min, 10 μM",[2]; [8],20.8 ×10⁻⁶ cm/s
same,"Papp A→B at 90 min, 10 μM",[2]; [9],> 10 ×10⁻⁶ cm/s
"C=CC(=O)N1C[C@H](C)N(c2nc(=O)n(-c3c(C)ccnc3C(C)C)c3nc(-c4c(F)ccc5ccoc45)c(Cl)cc23)C[C@H]1C [Compound 90, 4-((2S,5R)-4-acryloyl-2,5-dimethylpiperazin-1-yl)-6-chloro-7-(6-fluorobenzofuran-7-yl)-1-(2-isopropyl-4-methylpyridin-3-yl)pyrido[2,3-d]pyrimidin-2(1H)-one]",IC50,KRAS-G12C/SOS1,50 to 100 nM
same,pIC50,H358 (KRAS G12C); 72 hours,> 8.00
same,pIC50,MIA-Paca2 (KRAS G12C); 72 hours,7.30 to 8.00
same,pIC50,H23 (KRAS G12C),> 8.00
same,AUC(0-inf),[1],20400 ng·h/mL
same,Cmax,[1],5610 ng/mL
same,Tmax,[1],1 h
same,half-life,[1],5.54 h
same,AUC(0-t),[1],20100 ng·h/mL
same,melting point,,167 to 169 °C
CC[C@H]1OC(=O)[C@H](C)[C@@H](O[C@H]2C[C@@](C)(OC)[C@@H](O)[C@H](C)O2)[C@H](C)[C@@H](O[C@@H]2O[C@H](C)C[C@H](N(C)C)[C@H]2O)[C@](C)(O)C[C@@H](C)C(=O)[C@H](C)[C@@H](O)[C@]1(C)O [Erythromycin],"efflux ratio at 90 min, 10 μM",in vitro,30.6
same,"Papp A→B at 90 min, 10 μM",in vitro; [10],0.46 ×10⁻⁶ cm/s
same,"Papp A→B at 90 min, 10 μM",in vitro; [11],0.5 ×10⁻⁶ cm/s
same,"Papp A→B at 90 min, 10 μM",in vitro; [12],0.48 ×10⁻⁶ cm/s
same,"Papp B→A at 90 min, 10 μM",in vitro; [13],13.8 ×10⁻⁶ cm/s
same,"Papp B→A at 90 min, 10 μM",in vitro; [14],15.5 ×10⁻⁶ cm/s
same,"Papp B→A at 90 min, 10 μM",in vitro; [15],14.7 ×10⁻⁶ cm/s
COCCc1ccc(OCC(O)CNC(C)C)cc1 (stereo not shown) [Metoprolol Tartrate],"efflux ratio at 90 min, 10 μM",in vitro,0.93
same,"Papp A→B at 90 min, 10 μM",in vitro; [10],33.3 ×10⁻⁶ cm/s
same,"Papp A→B at 90 min, 10 μM",in vitro; [11],36.4 ×10⁻⁶ cm/s
same,"Papp A→B at 90 min, 10 μM",in vitro; [12],34.8 ×10⁻⁶ cm/s
same,"Papp B→A at 90 min, 10 μM",in vitro; [13],29.4 ×10⁻⁶ cm/s
same,"Papp B→A at 90 min, 10 μM",in vitro; [14],35.4 ×10⁻⁶ cm/s
same,"Papp B→A at 90 min, 10 μM",in vitro; [15],32.4 ×10⁻⁶ cm/s
